# Values joined by “and” are separate entries in the source; they are usually repeats but may differ in a detail not shown here. Identical values can stand only once.
# Tests used:
# [1] = system: ovariectomized (OVX) rats; assay: Telemetry rat model of ovariectomy-induced thermoregulatory dysfunction (tail skin temperature); format: in vivo; settings: 30 mg/kg, sc
# Description: This model has been modified from a previously reported protocol describing estrogen regulation of diurnal tail skin temperature (TST) patterns (Berendsen, et al., European Journal of Pharmacology, 2001, 419(1): 47-54). […] A temperature and physical activity transmitter (PhysioTel TA10TA-F40, Data Sciences International) was implanted subcutaneously in the dorsal scapular region and the tip of the temperature probe was tunneled subcutaneously 2.5 cm beyond the base of the tail. After a 7-day recovery period, TST readings were continuously recorded for the remainder of the study. Tail skin temperature readings were collected from each animal every 5 minutes with values obtained over a 10 second sampling period. The day before test day, an average baseline TST value was calculated for each animal by averaging temperature readings recorded during the 12 hour active (dark) phase. […]
# Statistical analysis: Evaluation of a compound's ability to restore normal lowering of TST in the telemetry model was analyzed using hourly TST values calculated for each animal by averaging the 12 temperature readings obtained every 5 minutes over that recording time. […]
# The effect of test compound is measured by evaluating the following parameters in this model: onset of action, duration of effect on TST, maximal change in TST and mean change in TST over the duration of the compound effect.
# [2] = target: T1, human serotonin transporter (hSERT) (Homo sapiens, UniProt P31645); assay: Serotonin (5-HT) uptake assay in JAR cells; format: cell-based; settings: [3H]5-HT uptake, read-out: hSERT function uptake (EC50 in nm)
# T1 construct: The methods for 5-HT functional reuptake using the JAR cell line; host or cells: JAR (human placental choriocarcinoma), staurosporine-stimulated
# T1 sequence (P31645 whole entry): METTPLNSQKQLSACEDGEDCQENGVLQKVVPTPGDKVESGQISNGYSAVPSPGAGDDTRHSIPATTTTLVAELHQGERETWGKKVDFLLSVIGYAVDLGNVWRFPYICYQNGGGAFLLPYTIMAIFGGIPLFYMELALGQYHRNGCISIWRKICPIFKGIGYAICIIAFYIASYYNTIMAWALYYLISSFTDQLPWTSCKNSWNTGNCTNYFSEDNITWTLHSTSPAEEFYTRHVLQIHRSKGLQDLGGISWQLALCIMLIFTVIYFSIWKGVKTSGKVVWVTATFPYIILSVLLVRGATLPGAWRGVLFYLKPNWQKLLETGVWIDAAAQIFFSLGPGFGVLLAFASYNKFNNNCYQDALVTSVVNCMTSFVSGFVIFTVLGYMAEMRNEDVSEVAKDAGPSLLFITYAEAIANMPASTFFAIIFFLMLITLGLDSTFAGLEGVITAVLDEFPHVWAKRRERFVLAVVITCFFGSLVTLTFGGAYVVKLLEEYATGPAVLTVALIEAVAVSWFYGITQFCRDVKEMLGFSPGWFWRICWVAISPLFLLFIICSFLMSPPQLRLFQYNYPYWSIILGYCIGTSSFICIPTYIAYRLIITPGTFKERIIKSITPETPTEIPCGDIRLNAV
# Procedure: (§1) MDCK-Net6 cells, stably transfected with human hNET [15] were cultured in growth medium containing high glucose DMEM (Gibco, Cat. No. 11995), 10% FBS (dialyzed, heat-inactivated, US Bio-Technologies, Lot FBD1129HI) and 500 μg/ml G418 (Gibco, Cat. No. 10131). Cells were plated at 300,000/T75 flask and cells were split twice weekly. The JAR cell line (human placental choriocarcinoma) was purchased from ATCC (Cat. No. HTB-144). The cells were cultured in growth medium containing RPMI 1640 (Gibco, Cat. No. 72400), 10% FBS (Irvine, Cat. No. 3000), 1% sodium pyruvate (Gibco, Cat. No. 1136) and 0.25% glucose. Cells were plated at 250,000 cells/T75 flask and split twice weekly. For cell based assays, cells were plated in Wallac 96-well sterile plates (Perkin Elmer, Cat. No. 3983498). For the human dopamine transporter (hDAT) binding assay, membranes from cells expressing recombinant hDAT are purchased from Perkin Elmer (Cat. No. RBHDATM, Lot#2227) and maintained at −80° C. until assay day.
# The methods for 5-HT functional reuptake using the JAR cell line were modified using a previous literature report. On day 1, cells were plated at 15,000 cells/well in 96-well plates containing growth medium (RPMI 1640 with 10% FBS) and maintained in a cell incubator (37° C., 5% CO2). […] The plates were counted in a Wallac Microbeta counter (PerkinElmer) to collect the raw cpm data. […]
# [3] = target: human norepinephrine transporter (hNET) (Homo sapiens, UniProt P23975); assay: cell-based
# human norepinephrine transporter (hNET), sequence (P23975 whole entry): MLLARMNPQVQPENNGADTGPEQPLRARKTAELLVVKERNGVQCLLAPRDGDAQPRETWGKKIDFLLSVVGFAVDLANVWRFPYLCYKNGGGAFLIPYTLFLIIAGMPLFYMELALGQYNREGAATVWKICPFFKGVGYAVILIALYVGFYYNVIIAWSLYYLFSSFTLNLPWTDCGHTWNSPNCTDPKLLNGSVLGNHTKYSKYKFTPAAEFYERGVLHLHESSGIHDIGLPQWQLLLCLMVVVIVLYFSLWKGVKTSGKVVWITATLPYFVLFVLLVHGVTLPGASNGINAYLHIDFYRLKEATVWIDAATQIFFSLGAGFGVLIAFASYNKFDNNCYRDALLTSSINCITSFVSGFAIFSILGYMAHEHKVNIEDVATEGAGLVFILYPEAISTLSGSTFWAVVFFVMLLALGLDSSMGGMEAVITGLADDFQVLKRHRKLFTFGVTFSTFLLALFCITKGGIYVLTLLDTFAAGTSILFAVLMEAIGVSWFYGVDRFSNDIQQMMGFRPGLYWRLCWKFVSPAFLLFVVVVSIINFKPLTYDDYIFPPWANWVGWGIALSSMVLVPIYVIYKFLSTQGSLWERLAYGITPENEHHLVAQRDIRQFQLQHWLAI
# Procedure: as §1
# On day 1, cells were plated at 3,000 cells/well in growth medium and maintained in a cell incubator (37° C., 5% CO2). […] The plates were counted in a Wallac Microbeta counter (PerkinElmer) to collect the raw cpm data. […]
# [4] = target: T2, human dopamine transporter (hDAT) (Homo sapiens, UniProt Q01959); assay: Dopamine transporter (hDAT) membrane binding assay
# T2 construct: purchased Perkin Elmer RBHDATM
# T2 sequence (Q01959 whole entry): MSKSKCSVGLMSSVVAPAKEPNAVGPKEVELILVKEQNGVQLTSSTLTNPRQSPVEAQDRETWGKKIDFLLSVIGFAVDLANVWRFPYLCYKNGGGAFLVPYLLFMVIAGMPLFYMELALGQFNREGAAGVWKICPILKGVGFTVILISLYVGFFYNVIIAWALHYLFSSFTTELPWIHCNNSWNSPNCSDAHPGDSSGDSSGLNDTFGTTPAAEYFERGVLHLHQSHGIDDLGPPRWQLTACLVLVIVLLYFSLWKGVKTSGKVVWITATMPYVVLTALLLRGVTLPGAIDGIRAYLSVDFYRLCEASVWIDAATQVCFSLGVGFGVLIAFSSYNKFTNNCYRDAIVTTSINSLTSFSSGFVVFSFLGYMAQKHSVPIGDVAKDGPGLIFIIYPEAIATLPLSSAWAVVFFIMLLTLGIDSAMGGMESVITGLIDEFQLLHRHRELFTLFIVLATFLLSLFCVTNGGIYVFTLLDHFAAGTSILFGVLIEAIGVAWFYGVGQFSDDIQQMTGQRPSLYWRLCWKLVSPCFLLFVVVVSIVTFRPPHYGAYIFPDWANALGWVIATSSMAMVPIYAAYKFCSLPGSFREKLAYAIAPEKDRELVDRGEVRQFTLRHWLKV
# Procedure: as §1
# For each experiment, a data stream of cpm values collected from the Wallac Microbeta counter was downloaded to a Microsoft Excel statistical application program. Calculations of IC50/EC50 values were made using the transformed-both-sides logistic dose response program written by Wyeth Biometrics Department.
# [5] = system: Spinal Nerve Ligation (SNL) Model of Neuropathic Pain; assay: Spinal Nerve Ligation (SNL) model of neuropathic pain, tactile hypersensitivity; format: in vivo, rat; settings: 30 mg/kg IP, 30-300 minutes after administration, FIG. 7
# Description: Subjects. Male Sprague-Dawley rats (Indianapolis, Ind.) weighing 150 to 200 g at time of arrival, were individually housed in wire cages in a climate-controlled room. A 12-hour light/dark cycle (lights on at 0630) was in effect, and food and water were available ad libitum.
# Surgery—Spinal Nerve Ligation. Rats were anesthetized with 3.5% halothane in O2 at 1 L/min and maintained with 1.5% halothane in O2 during surgery. Ligation of the L5 and L6 nerves was produced by an incision through the left paraspinal muscles. The left L5 and L6 spinal nerves were isolated adjacent to the vertebral column and ligated tightly with 6-0 silk suture just distal to the dorsal root ganglion. The wound was closed in layers using 4-0 silk suture and wound clips. Testing began 7 days after surgery.
# Assessment of tactile hypersensitivity. […] Baseline tactile sensitivity was assessed using a series of calibrated von Frey monofilaments (Stoelting; Wood Dale, Ill.) 0 to 3 days before surgery. […] The ability of a single dose of test compound to reverse established hypersensitivity was assessed using a time course procedure. […]
# Results are presented as the 50% threshold values (50% threshold in g force) estimated by the Dixon non-parametric test. […] Significant main effects were analyzed further by subsequent least significant difference analysis. […]
SMILES,Restoration of normal TST in OVX-induced thermoregulatory dysfunction telemetry model [1],EC50 [2],EC50 [3],hDAT binding (% I at 10 μM) [4],hDAT binding (% I at 1 μM) ([4]; 1 μM),Reversal of tactile allodynia in the SNL neuropathic pain model [5]
"Cc1ccc([C@@]23CNC[C@@H]2C3)cc1 (single isomer, unassigned) [(+)-1-(4-methylphenyl)-3-azabicyclo[3.1.0]hexane]",restores normal TST,7.35 µM,0.148 µM,51 % I,,
"Cc1ccc(C23CNCC2C3)cc1 (racemic) [Racemic 1-(4-methylphenyl)-3-azabicyclo[3.1.0]hexane, 1-(4-methylphenyl)-3-azabicyclo[3.1.0]hexane]",restores normal TST,,,45 % I and 52.1 % I,26.5 % I,
"Clc1ccc(C23CNCC2C3)cc1Cl (racemic) [Racemic 1-(3,4-dichlorophenyl)-3-azabicyclo[3.1.0]hexane, 1-(3,4-dichlorophenyl)-3-azabicyclo[3.1.0]hexane]",,,,,,significantly reverses tactile allodynia
